Experimental data taken from EP1377579B1 (Aventis Pharmaceuticals Inc., priority 2000, dated 2002).
Where “and” joins values, the source holds several entries; their conditions need not be identical. Equal values may be shown once. Read-outs that look alike come from different tables or passages of the source.

What was measured:
cdk4/cyclin D1 = cdk4/cyclin D1 (Homo sapiens, UniProt P11802); test: Cyclin-dependent kinase assay, cdk4/cyclin D1; type: biochemical; details: cyclin D1/cdk4; GST-pRb substrate, 10 µM ATP
MDA-MB-435 = test: In vitro proliferation assay (MTT), MDA-MB-435; type: cell-based, human; details: Homo sapiens
How it was run: (§1)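 Following 3 days of compound treatment, MTT was added and the dye dissolved in DMSO for 570 nm absorbance; IC50s derived from these raw readings. Seeding density 1000 to 2500 cells/well depending on line, with overnight recovery before dosing.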

[1] = Bioavailability experiment in mice given single intravenous cassette doses; details: for Conc. (ng/ml) in plasma: 24 h, BLQ = below assay quantification limit; for Cls: mice plasma, single intravenous cassette dose
cdk1/cyclin B = cdk1/cyclin B (Homo sapiens, UniProt P06493); test: Cyclin-dependent kinase assay, cdk1/cyclin B; details: CDK1 IC50, nM, Histone H1, 10 µM ATP
[2] = Red blood cell binding, mouse whole blood; type: in vitro ADME; details: 30 minutes at 37°C, 500 ng/ml
Experimental: Compounds, including one positive control, are assessed for red blood cell (RBC) uptake, using a modified procedure based on the protocol reported in Sun, J.X.S., et al. High-performance liquid chromatographic analysis, plasma protein binding and red blood cell partitioning of phenprobamate. Biopharmaceutics and Drug Disposition, 8 (1987) 341-351.
Briefly, RBC uptake is evaluated by comparison of the levels in spiked plasma (n=3) and plasma isolated from spiked whole blood (n=3). Compounds are incubated with human and mouse whole blood, respectively, for 30 minutes at 37°C using a nominal concentration of 500 ng/ml. Following centrifugation, the plasma is removed and submitted for analysis. Each compound is also spiked into blank plasma at a nominal concentration of 500 ng/ml, and submitted for analysis. Levels in the two plasma samples (Cp' and Cp in the equation below) and the blood hematocrit are used to determine the red blood cell to plasma ratio (Crbc/Cp). (Crbc)/(Cp) = (Cpʹ)/(Cp•H)-((1-H))/(H) [formula] In equation 1, Cp' is the level of drug in the spiked "blank" plasma, Cp is the level of drug in the plasma of spiked whole blood, and H is the hematocrit. The hematocrit values are determined as 0.4 for human whole blood and 0.41 for mouse whole blood. The samples are analyzed with ESI LC/MS, using positive ion detection with an internal standard.
The red blood cell to plasma ratio is determined for each compound using equation 1. Tables 6 and 7 summarize the respective mean Crbc/Cp values and standard deviations for mouse and human whole blood, respectively, in descending order based on the red blood cell to plasma ratio, where"*" denotes Positive Control, and "ND" denotes Not Determined. MDL 108552 is included as a positive control for red blood cell uptake. Table 6. Red Blood Cell to Plasma Ratio for compounds in mouse whole blood

PC-3 = test: In vitro proliferation assay (MTT), PC-3; type: cell-based, human; details: Homo sapiens
How it was run: as §1

in vivo = details: male, Hsd:ICR (CD-1), mouse, plasma
cdk2/cyclin E = cdk2/cyclin E (Homo sapiens, UniProt P24941); test: Cyclin-dependent kinase assay, cdk2/cyclin E; details: CDK2 IC50, nM, GST-pRb substrate, 10 µM ATP
Experimental: The insect cell (Sf9) expression is optimized for each of the CDK/cyclin pairs according to the manufacturer's protocols (Life Technologies).
The viruses are added to the cells and the culture is incubated at 27°C for the desired time. The cells are harvested by centrifugation at 3000 rpm for 10 minutes. The cells are snap frozen on dry ice and stored at - 80°C.
Cell extracts are made following a standard procedure. The cell pellet is resuspended in lysis buffer (50 mM HEPES, pH 8.0, 10 mM MgCl2, 1 mM DTT, 2.5 mM EGTA, 1 mM EDTA, 10 mM β-glycerophosphate, 1 mM sodium vanadate, 1 mM sodium fluoride, 1 x Protease inhibitor cocktail). The cells are lysed using the microfluidizer (Microfluidics) for 20 minutes. Cell debris is removed by centrifugation at 100,000 x g. The cell extracts are aliquoted in 1 ml aliquots, frozen on dry ice, and stored at -80°C.
The kinase reactions are performed following a standard procedure. The enzyme and inhibitor are diluted in kinase buffer (50 mM HEPES, pH 8.0, 10 mM MgCl2, 2.5 mM EGTA, 10 mM β-glycerophosphate, 1 mM sodium vanadate, 1 mM sodium fluoride, and 1 mM DTT) and pre-incubated for 30 minutes. The cdk2 and cdk4 enzyme activities are assayed using 500 ng of the GST-pRb substrate (see description below) in the presence of 10 µM cold ATP and 1 µCi of [γ-^33P] ATP for 30 minutes at room temperature. […] The reactions are terminated by the addition of 50 µL of 10 mM cold ATP to stop the reactions. The reactions are transferred to a pre-soaked 96-well multi-screen plate containing 30 µL of 100% TCA per well. After incubation for one hour at room temperature, the plates are washed twice with 200 µl of 20% TCA, followed by 200 µl of 10% TCA and finally with 200 µl of 5% TCA. After drying the plates at room temperature, the filter plates are placed in adapter plates (Packard) and 40 µl of Microscint-O® (Packard) is added to each well.

HL-60 Human Leukemia = test: HL-60 human leukemia xenograft in nude mice; type: in vivo; set-up: key: tumor volume = ½(a × b²) from caliper diameters, in mm^3
Experimental: Antitumor efficacy is assessed using two subcutaneous human tumor xenograft models. The studies are performed using conventional assay techniques. Briefly, HL-60 (leukemia, 5 x10^5 cells) and PC-3 (prostate, 5 x 10^6 cells) tumor cells are injected subcuateously into nude mice (Crl-CD1-Br-nu, Charles River Laboratory, Wilmington, MA). Dosing with compounds began when tumors reached 50 to 100 mm^3. The dose route/schedule for the test compounds is ip/qld (5x/wk). The test doses are set based on the maximum tolerated dose (MTD). […] The test doses for the efficacy studies are set at 1/3rd the MTD (low dose) and the MTD (high dose). The results are shown in Tables 4 and 5 (HL-60, leukemia) (PC-3, prostate cancer). The length of the treatment phase is dependent on the tumor growth rate for the two models. This treatment phase is typically about 3 weeks for the HL-60 model and about 5 weeks for the PC-3 model. […] Dosing with flavopiridol is for the same time frame as for the experimental compounds in both xenograft models. Tumor volume (twice weekly) and body weights (once weekly) are monitored throughout the course of the treatment phase of the experiment. Tumor sizes are measured by external caliper measurements of protruding tumor. Volumes are calculated using the following formula: volume =½ (a x b2), where b is the smaller of two perpendicular diameters.

[3] = Cassette #1, single 18 mg/kg intravenous cassette dose, mice
[4] = 3 mg/kg/compound (18 mg/kg Total Dose), Cassette #1
[5] = MDA-MB-435, read-out: MB-435 Breast (IC50 µM)
[6] = Cassette #2, single 18 mg/kg intravenous cassette dose, mice
[7] = 3 mg/kg/compound (18 mg/kg Total Dose), Cassette #2
[8] = PC-3, read-out: PC-3 Prostate (IC50 µM)

Sequence of cdk4/cyclin D1 (P11802 whole entry): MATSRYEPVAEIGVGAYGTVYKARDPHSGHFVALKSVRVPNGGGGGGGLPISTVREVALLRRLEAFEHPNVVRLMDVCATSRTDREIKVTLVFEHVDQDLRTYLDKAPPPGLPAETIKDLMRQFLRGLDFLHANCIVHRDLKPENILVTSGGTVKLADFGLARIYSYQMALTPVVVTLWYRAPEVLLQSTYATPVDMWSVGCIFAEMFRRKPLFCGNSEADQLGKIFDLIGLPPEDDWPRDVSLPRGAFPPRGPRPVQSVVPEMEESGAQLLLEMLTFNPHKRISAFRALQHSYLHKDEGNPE
Sequence of cdk4/cyclin D1 (P24385 whole entry partner): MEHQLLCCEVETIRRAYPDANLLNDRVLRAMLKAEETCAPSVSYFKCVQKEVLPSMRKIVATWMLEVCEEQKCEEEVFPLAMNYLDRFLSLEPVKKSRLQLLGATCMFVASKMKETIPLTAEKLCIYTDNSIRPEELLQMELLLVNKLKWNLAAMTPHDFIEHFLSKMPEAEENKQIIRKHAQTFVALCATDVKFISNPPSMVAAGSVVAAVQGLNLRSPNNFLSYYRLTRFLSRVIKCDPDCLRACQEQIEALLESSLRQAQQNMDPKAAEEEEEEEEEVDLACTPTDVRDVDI
Sequence of cdk1/cyclin B (P06493 whole entry): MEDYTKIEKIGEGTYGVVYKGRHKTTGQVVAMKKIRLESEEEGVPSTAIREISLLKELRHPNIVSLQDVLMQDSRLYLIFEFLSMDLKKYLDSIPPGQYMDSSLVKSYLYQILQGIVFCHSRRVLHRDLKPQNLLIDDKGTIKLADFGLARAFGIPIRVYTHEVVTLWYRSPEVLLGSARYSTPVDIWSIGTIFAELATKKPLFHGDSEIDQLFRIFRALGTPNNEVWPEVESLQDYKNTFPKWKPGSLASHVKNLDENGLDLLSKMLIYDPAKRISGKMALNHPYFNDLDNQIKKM
Sequence of cdk1/cyclin B (P14635 whole entry partner): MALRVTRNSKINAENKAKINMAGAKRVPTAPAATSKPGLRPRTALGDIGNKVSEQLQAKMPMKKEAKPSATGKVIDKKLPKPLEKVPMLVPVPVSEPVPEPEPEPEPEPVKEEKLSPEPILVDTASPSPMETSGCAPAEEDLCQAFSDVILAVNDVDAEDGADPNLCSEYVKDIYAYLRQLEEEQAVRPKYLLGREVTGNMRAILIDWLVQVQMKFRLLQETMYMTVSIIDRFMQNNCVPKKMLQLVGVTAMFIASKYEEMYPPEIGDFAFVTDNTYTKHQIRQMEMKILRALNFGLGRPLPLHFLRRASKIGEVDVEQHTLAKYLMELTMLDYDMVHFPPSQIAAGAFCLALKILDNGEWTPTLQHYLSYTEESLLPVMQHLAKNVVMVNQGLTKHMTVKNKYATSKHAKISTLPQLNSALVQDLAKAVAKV

SMILES	IC50 (cdk4/cyclin D1)	Conc. (ng/ml) in plasma [1, 3]	Cls [1, 4]	IC50 (cdk1/cyclin B)	Mean Red Blood Cell to Plasma Ratio [2]	AUC(0-inf) (in vivo; iv, 3 mg/kg)	Cmax (in vivo; iv, 3 mg/kg)	half-life (in vivo; iv, 3 mg/kg)	concentration at 0.083 h (in vivo; iv, 18 mg/kg)	concentration at 0.25 h (in vivo; iv, 18 mg/kg)	concentration at 0.5 h (in vivo; iv, 18 mg/kg)	concentration at 1 h (in vivo; iv, 18 mg/kg)	concentration at 3 h (in vivo; iv, 18 mg/kg)	concentration at 6 h (in vivo; iv, 18 mg/kg)	concentration at 8 h (in vivo; iv, 18 mg/kg)	IC50 (cdk2/cyclin E)	HL60 Mean Vol. ± SD (HL-60 Human Leukemia; Table 5, dose 3 mg/kg ip)	HL60 Mean Vol. ± SD (HL-60 Human Leukemia; Table 5, dose 10 mg/kg ip)	IC50 (MDA-MB-435; [5])	IC50 (PC-3; [8])	other results
Cl.Cl.N[C@H]1CC[C@H](Nc2nc(NC3CCN(C(=O)c4cccc(C(F)(F)F)c4F)CC3)c3ncn(C4CCCC4)c3n2)CC1 [compound 12, trans-1-{4-[2-(4-Amino-cyclohexylamino)-9-cyclopentyl-9H-purin-6-ylamino]-piperidin-1-yl}-1-(2-fluoro-3-trifluoromethyl-phenyl)-methanone dihydrochloride]	614 nM	BLQ	19.6 mL/min/kg	88 nM	1.9	2550 ng·h/mL	4110 ng/mL	2.3 h	4110 ± 754 ng/mL	2360 ± 124 ng/mL	1090 ± 36.1 ng/mL	465 ± 34.6 ng/mL	74.7 ± 17.4 ng/mL	27 ± 2.7 ng/mL	16.9 ± 1.4 ng/mL	5 nM	4948 ± 2803	2624 ± 2108			IC50 (MDA-MB-435; MDA-MB-435, MTT assay, value (SD, n) where given, read-out: MB-435 Breast (IC50 µM)): 0.28 µM; IC50 (PC-3; PC-3, MTT assay, value (SD, n) where given, read-out: PC-3 Prostate (IC50 µM)): 0.48 µM
Cl.Cl.N[C@H]1CC[C@H](Nc2nc(NC3CCN(C(=O)Oc4ccc(Br)cc4)CC3)c3ncn(C4CCCC4)c3n2)CC1 [compound 81, trans-4-[2-(4-Amino-cyclohexylamino)-9-cyclopentyl-9H-purin-6-ylamino]-piperidine-1-carboxylic acid 4-bromo-phenyl ester dihydrochloride]	67 nM			16 nM		660 ng·h/mL	1770 ng/mL	1.7 h	1770 ± 384 ng/mL	394 ± 142 ng/mL	164 ± 47.2 ng/mL	65.3 ± 10 ng/mL	12.7 ± 3.4 ng/mL	5.4 ± 1.5 ng/mL	3.5 ± 0.9 ng/mL	39 nM	5104 ± 4014		0.1 µM	0.12 µM	Conc. (ng/ml) in plasma [1, 6]: BLQ; Cls [1, 7]: 75.8 mL/min/kg; Mean Red Blood Cell to Plasma Ratio ([2]; dihydrochloride): 3.3 and 4.5; HL60 Mean Vol. ± SD (HL-60 Human Leukemia; Table 5, dose 1 mg/kg ip): 5802 ± 2996
COC(=O)c1ccc(OC(=O)N2CCC(Nc3nc(N[C@H]4CC[C@H](N)CC4)nc4c3ncn4C3CCCC3)CC2)cc1.Cl.Cl [compound 83, trans-4-[2-(4-Amino-cyclohexylamino)-9-cyclopentyl-9H-purin-6-ylamino]-piperidine-1-carboxylic acid 4-methoxycarbonyl-phenyl ester dihydrochloride]	185 nM	BLQ	111.4 mL/min/kg	19 nM	112.2	449 ng·h/mL	1520 ng/mL	0.7 h	1520 ± 612 ng/mL	218 ± 92.8 ng/mL	61.3 ± 32.9 ng/mL	14.1 ng/mL	4.1 ng/mL	1.6 ng/mL	6.3 ng/mL	44 nM	5906 ± 2948	4057 ± 2599	0.17 µM	0.15 µM	
COc1ccc(OC(=O)N2CCC(Nc3nc(N[C@H]4CC[C@H](N)CC4)nc4c3ncn4C3CCCC3)CC2)cc1.Cl.Cl [compound 84, trans-4-[2-(4-Amino-cyclohexylamino)-9-cyclopentyl-9H-purin-6-ylamino]-piperidine-1-carboxylic acid 4-methoxy-phenyl ester dihydrochloride]	69 nM			19 nM	3.5	965 ng·h/mL	1510 ng/mL	1.5 h	1510 ± 377 ng/mL	883 ± 140 ng/mL	446 ± 79 ng/mL	202 ± 37.3 ng/mL	27 ± 2.4 ng/mL	6.1 ± 0.8 ng/mL	2.9 ± 0.2 ng/mL	9 nM	4886 ± 3467		0.1 µM	0.12 µM	Conc. (ng/ml) in plasma [1, 6]: BLQ; Cls [1, 7]: 51.8 mL/min/kg; HL60 Mean Vol. ± SD (HL-60 Human Leukemia; Table 5, dose 1 mg/kg ip): 4790 ± 6912
Cl.Cl.N[C@H]1CC[C@H](Nc2nc(NC3CCN(C(=O)Oc4ccc(F)cc4)CC3)c3ncn(C4CCCC4)c3n2)CC1 [compound 87, trans-4-[2-(4-Amino-cyclohexylamino)-9-cyclopentyl-9H-purin-6-ylamino]-piperidine-1-carboxylic acid 4-fluoro-phenyl ester dihydrochloride]	27 nM			15 nM	3.4	513 ng·h/mL	1170 ng/mL	1.6 h								42 nM			0.11 µM		Cls ([1]; 3 mg/kg/compound (15 mg/kg Total Dose), Cassette #3): 97.4 mL/min/kg; Conc. in plasma ([1]; mice, single 15 mg/kg intravenous cassette dose (3 mg/kg/compound), Cassette #3, 24 h, BLQ = below assay quantification limit (approximately 1 ng/ml)): BLQ^a; concentration at 0.083 h (in vivo; intravenous, 3 mg/kg): 1170 ± 153 ng/mL; concentration at 0.25 h (in vivo; intravenous, 3 mg/kg): 372 ± 35.9 ng/mL; concentration at 0.5 h (in vivo; intravenous, 3 mg/kg): 141 ± 9.5 ng/mL; concentration at 1 h (in vivo; intravenous, 3 mg/kg): 65 ± 14 ng/mL; concentration at 3 h (in vivo; intravenous, 3 mg/kg): 19.2 ± 6 ng/mL; concentration at 6 h (in vivo; intravenous, 3 mg/kg): 4.3 ± 0.7 ng/mL; concentration at 8 h (in vivo; intravenous, 3 mg/kg): 3.2 ± 1.6 ng/mL; HL60 Mean Vol. ± SD (HL-60 Human Leukemia; Table 4, dose 1 mg/kg ip): 3718 ± 2715; HL60 Mean Vol. ± SD (HL-60 Human Leukemia; Table 4, dose 3 mg/kg ip): 7096 ± 3079
